Experimental data: patent publication US20100055169A1, “CATIONIC LIPIDS AND USES THEREOF” (ABBOTT LABORATORIES, priority 2008, published 2010)

Assay: RiboGreen assay of siRNA encapsulation efficiency, in vitro formulations of Lipid-Based Particles
Assay type: physicochemical
Conditions: in vitro formulation b: Cationic lipid/PEG-cholesterol/DSPC/Chol 45/10/15/30 wt %, lipid:siRNA 25:1
Experimental: The mixing solution of cationic lipids, cholesterol, non-cationic lipids and PEG-lipids was prepared in ethanol (total concentration at 10 mg/mL). siSTABLE (purchased from ThermoFisher) (sense-5′ GGGGAAAGCUGGCAAGAUUUU-3′SEQ ID NO. 1, antisense-5′-AAUCUUGCCAGCUUUCCCCUU-3′ SEQ ID NO: 2) % stock solution was prepared in 10 mg/mL of solution by dissolving 10 mg siRNA in 1 mL of RNAse-free UltraPure Water. The calculated amount of siRNA solution was added to 1 mL of citrate buffer (pH 4.0, 20 mM), to provide an siRNA concentration of 0.2 mg/mL, and warmed to 60 C. The calculated amount of lipid solution was warmed to 60 C, transferred to a 0.5 mL syringe with 28½ gauge needle, and injected into the citrate buffer with stirring at 60 C. After 3 minutes, 3 mL of PBS solution at room temperature (pH 7.4) was added into the lipid mixture with stirring. The Lipid-Based Particle solution was cooled to room temperature.
The siRNA concentrations were measured using Quanti-iT RiboGreen RNA reagent (Molecular Probes, (R11490)). Vesicle sizes were characterized by dynamic light scattering with a DynaPro™ Plate Reader (Wyatt Technology) in 96-well half-area UV plate (Coring) after diluting the formulation sample (20 μL) in phosphate buffered saline (80 μL) at a pH of about 7-8. A 1% agarose gel-based assay was used for analyzing nuclease degradation and protection. Encapsulation efficiency (EE) was calculated using data obtained from a RiboGreen assay.
RNA concentration and encapsulation efficiency were determined using a Quant-iT® Ribogreen RNA reagent and kit available from Invitrogen. The siRNA was released from the Lipid-Based Particle using one of the following reagents: ethanol, Triton X-100, or phenol/chloroform. The siRNA concentration is quantified using fluorescent reading at 480 nm/520 nm.

| Compound | % Encapsulation Efficiency |
| --- | --- |
| 1-[3,4-bis(hexadecyloxy)butyl]pyrrolidine [Example 38] | 99% |
| CCCCC/C=C\C/C=C\CCCCCCCCOCC(CCOCCN(CC)CC)OCCCCCCCC/C=C\C/C=C\CCCCC (stereo not drawn) [Example 25, N-(2-{3,4-bis[(9Z,12Z)-octadeca-9,12-dienyloxy]butoxy}ethyl)-N,N-diethylamine] | 96.1% |
| CCCCC/C=C\C/C=C\CCCCCCCCOCC(CCOCCC1CCCN1C)OCCCCCCCC/C=C\C/C=C\CCCCC (stereo not drawn) [Example 26, 2-(2-{3,4-bis[(9Z,12Z)-octadeca-9,12-dienyloxy]butoxy}ethyl)-1-methylpyrrolidine] | 99.9% |
| CCCCC/C=C\C/C=C\CCCCCCCCOCC(CCOCCN1CC1)OCCCCCCCC/C=C\C/C=C\CCCCC (stereo not drawn) [Example 27, 1-(2-{3,4-bis[(9Z,12Z)-octadeca-9,12-dienyloxy]butoxy}ethyl)aziridine] | 97% |
| CCCCC/C=C\C/C=C\CCCCCCCCOCC(CCOCCN(C)C)OCCCCCCCC/C=C\C/C=C\CCCCC (stereo not drawn) [Example 29, N-(2-{3,4-bis[(9Z,12Z)-octadeca-9,12-dienyloxy]butoxy}ethyl)-N,N-dimethylamine] | 96.4% |
| CCCCC/C=C\C/C=C\CCCCCCCCC1(CCCCCCC/C=C\C/C=C\CCCCC)OCC(CCN(CC)CC)O1 (stereo not drawn) [Example 32, N,N-diethyl-N-(2-{2-[(8Z,11Z)-heptadeca-8,11-dienyl]-2-[(9Z,12Z)-octadeca-9,12-dienyl]-1,3-dioxolan-4-yl}ethyl)amine] | 98.6% |
| CCCCCCCC/C=C\CCCCCCCC(=O)OCC(CCN1CCCC1)OC(=O)CCCCCCC/C=C\CCCCCCCC (stereo not drawn) [Example 33, 1-{[(9Z)-octadec-9-enoyloxy]methyl}-3-pyrrolidin-1-ylpropyl (9Z)-octadec-9-enoate] | 99% |
| CCCCCCCC/C=C\CCCCCCCCOCC(CCN1CCCC1)OCCCCCCCC/C=C\CCCCCCCC (stereo not drawn) [Example 34, 1-{3,4-bis[(9Z)-octadec-9-enyloxy]butyl}pyrrolidine] | 99% |
| CCCCC/C=C\C/C=C\C/C=C\C/C=C\CCCC(=O)OCC(CCN1CCCC1)OC(=O)CCC/C=C\C/C=C\C/C=C\C/C=C\CCCCC (stereo not drawn) [Example 35, 1-{[(5Z,8Z,11Z,14Z)-icosa-5,8,11,14-tetraenoyloxy]methyl}-3-pyrrolidin-1-ylpropyl(5Z,8Z,11Z,14Z)-icosa-5,8,11,14-tetraenoate] | 83.5% |
| CCCCC/C=C\C/C=C\CCCCCCCCOC[C@H](CCOC(=O)NCCCN1CCCC1)OCCCCCCCC/C=C\C/C=C\CCCCC [Example 36, (3S)-3,4-bis[(9Z,12Z)-octadeca-9,12-dienyloxy]butyl 3-pyrrolidin-1-ylpropylcarbamate] | 99% |
| CCCCCCCCCCCCCCCCCCOCC(CCN1CCCC1)OCCCCCCCCCCCCCCCCCC (stereo not drawn) [Example 37, 1-[3,4-bis(octadecyloxy)butyl]pyrrolidine] | 98.5% |
| CCCCCC/C=C/CCCCCCCCOCC(CCN1CCCC1)OCCCCCCCC/C=C/CCCCCC (stereo not drawn) [Example 39, 1-{3,4-bis[(9E)-hexadec-9-enyloxy]butyl}pyrrolidine] | 99% |
| CCCCCCCC/C=C/CCCCCCCCOCC(CCN1CCCC1)OCCCCCCCC/C=C/CCCCCCCC (stereo not drawn) [Example 40, 1-{3,4-bis[(9E)-octadec-9-enyloxy]butyl}pyrrolidine] | 97% |
| CCCCC/C=C/C/C=C/CCCCCCCCOCC(CCN1CCCC1)OCCCCCCCC/C=C/C/C=C/CCCCC (stereo not drawn) [Example 41, 1-{3,4-bis[(9E,12E)-octadeca-9,12-dienyloxy]butyl}pyrrolidine] | 99% |
| CC/C=C\C/C=C\C/C=C\CCCCCCCCOCC(CCN1CCCC1)OCCCCCCCC/C=C\C/C=C\C/C=C\CC (stereo not drawn) [Example 42, 1-{3,4-bis[(9Z,12Z,15Z)-octadeca-9,12,15-trienyloxy]butyl}pyrrolidine] | 98% |
| CCCCC/C=C\C/C=C\CCCCCCCCOC[C@H](CCNC(=O)CCN(CC)CC)OCCCCCCCC/C=C\C/C=C\CCCCC [Example 43, N^1-{(3S)-3,4-bis[(9Z,12Z)-octadeca-9,12-dienyloxy]butyl}-N^3,N^3-diethyl-beta-alaninamide] | 96.5% |
| CCCCC/C=C\C/C=C\CCCCCCCCOCC(CCNCCCn1ccnc1)OCCCCCCCC/C=C\C/C=C\CCCCC (stereo not drawn) [Example 44, N-{3,4-bis[(9Z,12Z)-octadeca-9,12-dienyloxy]butyl}-N-[3-(1H-imidazol-1-yl)propyl]amine] | 98% |
| CCCCC/C=C\C/C=C\CCCCCCCCOCC(CCN(C)CCCN(C)C)OCCCCCCCC/C=C\C/C=C\CCCCC (stereo not drawn) [Example 45, N-{3,4-bis[(9Z,12Z)-octadeca-9,12-dienyloxy]butyl}-N,N′,N′-trimethylpropane-1,3-diamine] | 99% |
| CCCCC/C=C\C/C=C\CCCCCCCCOCC(CCN1CCC(n2ccnc2)C1)OCCCCCCCC/C=C\C/C=C\CCCCC (stereo not drawn) [Example 46, 1-(1-{3,4-bis[(9Z,12Z)-octadeca-9,12-dienyloxy]butyl}pyrrolidin-3-yl)-1H-imidazole] | 98% |
| CCCCC/C=C\C/C=C\CCCCCCCCOCC(CCNCCCN1CCCC1)OCCCCCCCC/C=C\C/C=C\CCCCC (stereo not drawn) [Example 47, N-{3,4-bis[(9Z,12Z)-octadeca-9,12-dienyloxy]butyl}-N-(3-pyrrolidin-1-ylpropyl)amine] | 99% |
| CCCCC/C=C\C/C=C\CCCCCCCCOCC(CCNCCCN(C)C)OCCCCCCCC/C=C\C/C=C\CCCCC (stereo not drawn) [Example 48, N-{3,4-bis[(9Z,12Z)-octadeca-9,12-dienyloxy]butyl}-N′,N′-dimethylpropane-1,3-diamine] | 99% |
| CCCCC/C=C\C/C=C\CCCCCCCCOCC(CCN1CCC1)OCCCCCCCC/C=C\C/C=C\CCCCC (stereo not drawn) [Example 49, 1-{3,4-bis[(9Z,12Z)-octadeca-9,12-dienyloxy]butyl}azetidine] | 99% |
| CCCCC/C=C\C/C=C\CCCCCCCCOCC(CCN1CCCC1C)OCCCCCCCC/C=C\C/C=C\CCCCC (stereo not drawn) [Example 50, 1-{3,4-bis[(9Z,12Z)-octadeca-9,12-dienyloxy]butyl}-2-methylpyrrolidine] | 99% |
| CCCCC/C=C\C/C=C\CCCCCCCCOCC(CCN1C(C)CCC1C)OCCCCCCCC/C=C\C/C=C\CCCCC (stereo not drawn) [Example 51, 1-{3,4-bis[(9Z,12Z)-octadeca-9,12-dienyloxy]butyl}-2,5-dimethylpyrrolidine] | 99% |
